pIC50: −log10 of the molar value. Where only a bound is given, the exact number is not on record here.

Sequence of USP1 (construct USP1 (I-785, GG670, 671AA)/UAF1 (I-677)-Flag) (O94782 whole entry G670A/G671A): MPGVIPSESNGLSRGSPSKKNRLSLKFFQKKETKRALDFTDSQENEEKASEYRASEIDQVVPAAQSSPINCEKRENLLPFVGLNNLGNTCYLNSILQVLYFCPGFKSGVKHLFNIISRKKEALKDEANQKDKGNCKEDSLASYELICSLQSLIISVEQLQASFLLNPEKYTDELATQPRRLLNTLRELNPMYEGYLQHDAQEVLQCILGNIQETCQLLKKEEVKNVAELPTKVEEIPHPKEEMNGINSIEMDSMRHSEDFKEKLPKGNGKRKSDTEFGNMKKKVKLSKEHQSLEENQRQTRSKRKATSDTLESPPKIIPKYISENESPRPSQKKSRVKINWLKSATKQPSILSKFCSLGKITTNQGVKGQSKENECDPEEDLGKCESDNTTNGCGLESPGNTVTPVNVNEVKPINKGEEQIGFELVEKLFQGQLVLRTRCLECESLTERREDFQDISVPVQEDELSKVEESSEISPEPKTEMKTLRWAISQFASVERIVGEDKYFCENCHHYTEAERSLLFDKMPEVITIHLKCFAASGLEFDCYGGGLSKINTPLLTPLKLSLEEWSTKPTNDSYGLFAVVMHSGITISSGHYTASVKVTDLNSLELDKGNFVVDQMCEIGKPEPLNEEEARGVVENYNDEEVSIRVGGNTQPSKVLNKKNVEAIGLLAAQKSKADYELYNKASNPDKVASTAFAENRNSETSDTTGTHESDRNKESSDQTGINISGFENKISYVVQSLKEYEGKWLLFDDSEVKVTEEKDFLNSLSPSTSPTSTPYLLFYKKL
Sequence of USP1 (construct USP1 (I-785, GG670, 671AA)/UAF1 (I-677)-Flag) (Q8TAF3 whole entry partner): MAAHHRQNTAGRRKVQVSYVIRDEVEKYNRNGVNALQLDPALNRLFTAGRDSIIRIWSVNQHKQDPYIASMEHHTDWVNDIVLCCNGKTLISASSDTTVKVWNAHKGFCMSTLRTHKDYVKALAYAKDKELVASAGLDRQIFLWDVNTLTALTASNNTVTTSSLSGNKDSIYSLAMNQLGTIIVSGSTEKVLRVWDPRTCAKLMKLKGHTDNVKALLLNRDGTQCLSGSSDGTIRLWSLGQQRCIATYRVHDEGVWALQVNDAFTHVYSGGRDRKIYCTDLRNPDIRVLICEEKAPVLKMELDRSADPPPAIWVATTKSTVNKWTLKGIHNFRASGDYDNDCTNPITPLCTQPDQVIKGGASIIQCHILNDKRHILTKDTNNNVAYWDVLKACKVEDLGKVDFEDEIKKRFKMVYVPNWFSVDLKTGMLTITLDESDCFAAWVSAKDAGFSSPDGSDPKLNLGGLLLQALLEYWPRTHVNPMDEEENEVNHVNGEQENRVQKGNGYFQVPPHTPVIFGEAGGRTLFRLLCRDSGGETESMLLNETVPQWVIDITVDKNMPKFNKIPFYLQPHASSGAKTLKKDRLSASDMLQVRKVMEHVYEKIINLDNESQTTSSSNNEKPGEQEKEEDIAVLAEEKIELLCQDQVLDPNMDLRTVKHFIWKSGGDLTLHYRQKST

The target in this experiment is USP1 (construct USP1 (I-785, GG670, 671AA)/UAF1 (I-677)-Flag) (Homo sapiens (Human), UniProt O94782, G670A/G671A). Briefly: Ubiquitin-Rhodamine 110 assay for USP1 activity. In kind it is biochemical. The conditions noted are these: USP1/UAF1 25 pM, Ub-Rh110 25 nM, 30 min preincubation. Summed up:
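Two formats with the USP1/UAF1 complex and 25 nM ubiquitin-rhodamine 110 in pH 8.0 Tris buffer with calcium, glutathione and detergent. Single-point screening used 10 µM, 100 pM enzyme and 45 min. Inhibition was set against no-enzyme and DMSO wells.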
As usually defined, the pIC50 is −log10 of the IC50, conventionally taken in molar units. Lower therefore signals a high IC50. The compound `CC(C)c1ccccc1-c1ncc2[nH]c(=O)n(Cc3ccc(-n4ccc(N5CCOCC5)n4)cc3)c2n1` [Compound I-174, 2-(2-isopropylphenyl)-9-(4-(3-morpholino-1H-pyrazol-1-yl)benzyl)-7,9-dihydro-8H-purin-8-one] gave a pIC50 of over 7.30. As to `CO[C@@H](C)c1ccccc1-c1ncc2[nH]c(=O)n(Cc3ccc(-c4nc(C(F)(F)F)cn4C)cc3)c2n1` [Compound I-56, (S)-2-(2-(1-methoxyethyl)phenyl)-9-(4-(1-methyl-4-(trifluoromethyl)-1H-imidazol-2-yl)benzyl)-7,9-dihydro-8H-purin-8-one], the negative-log IC50 (pIC50) is over 7.30. The figure for `CC(C)c1ccccc1-c1ncc2[nH]c(=O)n([C@@H](C)c3ccc(-n4nccn4)cc3)c2n1` [Compound I-141, (S)-9-(1-(4-(2H-1,2,3-triazol-2-yl)phenyl)ethyl)-2-(2-isopropylphenyl)-7,9-dihydro-8H-purin-8-one] is 5.70 to 6.70; for `CC(C)c1cccnc1-c1ncc2c(n1)n(Cc1ccc(-n3cccn3)cc1)c(=O)n2C` [Compound I-517, 9-(4-(1H-Pyrazol-1-yl)benzyl)-2-(3-isopropylpyridin-2-yl)-7-methyl-7,9-dihydro-8H-purin-8-one] it is under 5.70. In turn, `CC(C)c1ccccc1-c1ncc2[nH]c(=O)n(Cc3ccc(-c4cnn(C5CCNCC5)c4)cc3)c2n1` [Compound I-540, 2-(2-isopropylphenyl)-9-(4-(1-(piperidin-4-yl)-1H-pyrazol-4-yl)benzyl)-7,9-dihydro-8H-purin-8-one] showed a negative-log IC50 (pIC50) of 5.70 to 6.70.

As for `CC(=O)c1ccccc1-c1ncc2[nH]c(=O)n(Cc3ccc(-c4nc(C(F)(F)F)cn4C)cc3)c2n1` [Compound I-38, 2-(2-acetylphenyl)-9-(4-(1-methyl-4-(trifluoromethyl)-1H-imidazol-2-yl)benzyl)-7,9-dihydro-8H-purin-8-one], the pIC50 was over 7.30.

The compound `Cc1nc(N2CCC(Cn3c(=O)n(C)c4cnc(-c5ccccc5C(C)C)nc43)CC2)c(C)s1` [Compound I-494, 9-((1-(2,5-dimethylthiazol-4-yl)piperidin-4-yl)methyl)-2-(2-isopropylphenyl)-7-methyl-7,9-dihydro-8H-purin-8-one] had a negative-log IC50 (pIC50) of 6.70 to 7.30. Then `CC(C)c1ccccc1-c1ncc2[nH]c(=O)n(Cc3ccc(-n4cncn4)cc3)c2n1` [Compound I-154, 9-(4-(1H-1,2,4-triazol-1-yl)benzyl)-2-(2-isopropylphenyl)-7,9-dihydro-8H-purin-8-one], with under 5.70. The figure for `CC(C)c1ccccc1-c1ncc2[nH]c(=O)n(Cc3ccc(N4CCCC4=O)cc3)c2n1` [Compound I-512, 2-(2-Isopropylphenyl)-9-(4-(2-oxopyrrolidin-1-yl)benzyl)-7,9-dihydro-8H-purin-8-one] is 6.70 to 7.30. Regarding `Cc1cc(C)n(-c2ccc(Cn3c(=O)[nH]c4cnc(-c5ccccc5C(C)C)nc43)cc2)n1` [Compound I-1, 9-(4-(3,5-Dimethyl-1H-pyrazol-1-yl)benzyl)-2-(2-isopropylphenyl)-7,9-dihydro-8H-purin-8-one], the negative logarithm of the IC50 (pIC50) is over 7.30. Then `CC(C)c1ncc(F)cc1-c1ncc2c(n1)n(Cc1ccc(-c3nc(C(F)(F)F)cn3C)cc1)c(=O)n2C` [Compound I-69, 2-(5-fluoro-2-isopropylpyridin-3-yl)-7-methyl-9-(4-(1-methyl-4-(trifluoromethyl)-1H-imidazol-2-yl)benzyl)-7,9-dihydro-8H-purin-8-one], with over 7.30; and `CC(C)c1ccccc1-c1ncc2c(n1)n(Cc1ccc(OCc3ccccn3)cc1)c(=O)n2C` [Compound I-231, 2-(2-isopropylphenyl)-7-methyl-9-(4-(pyridin-2-ylmethoxy)benzyl)-7,9-dihydro-8H-purin-8-one], with over 7.30. Then `CC(C)c1ccccc1-c1ncc2c(n1)n(CC1CCN(S(=O)(=O)C(C)C)CC1)c(=O)n2C` [Compound I-450, 2-(2-isopropylphenyl)-9-((1-(isopropylsulfonyl)piperidin-4-yl)methyl)-7-methyl-7,9-dihydro-8H-purin-8-one], with 6.70 to 7.30; and `CC(C)c1ncccc1-c1ncc2[nH]c(=O)n(Cc3cc(F)c(-c4nc(C(F)(F)F)cn4C)c(F)c3)c2n1` [Compound I-82, 9-(3,5-difluoro-4-(1-methyl-4-(trifluoromethyl)-1H-imidazol-2-yl)benzyl)-2-(2-isopropylpyridin-3-yl)-7,9-dihydro-8H-purin-8-one], with over 7.30. Then `CC(C)c1ccccc1-c1ncc2[nH]c(=O)n(Cc3ccc(-n4nc(C#N)cc4C#N)cc3)c2n1` [Compound I-199, 1-(4-((2-(2-isopropylphenyl)-8-oxo-7,8-dihydro-9H-purin-9-yl)methyl)phenyl)-1H-pyrazole-3,5-dicarbonitrile], with over 7.30; and `COCC(C)Nc1ncccc1-c1ncc2[nH]c(=O)n(Cc3ccc(-c4nc(C(F)(F)F)cn4C)cc3)c2n1` (stereo not drawn) [Compound I-317, 2-(2-((1-methoxypropan-2-yl)amino)pyridin-3-yl)-9-(4-(1-methyl-4-(trifluoromethyl)-1H-imidazol-2-yl)benzyl)-7,9-dihydro-8H-purin-8-one], with 6.70 to 7.30; and `CC(C)c1ccccc1-c1ncc2[nH]c(=O)n(Cc3ccc4c(c3)CCN(C)C4=O)c2n1` [Compound I-187, 6-((2-(2-isopropylphenyl)-8-oxo-7,8-dihydro-9H-purin-9-yl)methyl)-2-methyl-3,4-dihydroisoquinolin-1(2H)-one], with over 7.30. `O=c1[nH]c2cnc(-c3ccccc3OC(F)F)nc2n1Cc1ccc(-n2ccc(F)n2)cc1` [Compound I-89, 2-(2-(difluoromethoxy)phenyl)-9-(4-(3-fluoro-1H-pyrazol-1-yl)benzyl)-7,9-dihydro-8H-purin-8-one] gave a pIC50 of 5.70 to 6.70. The figure for `CC(C)c1ccccc1-c1ncc2[nH]c(=O)n(Cc3ccc(-n4cc(CCO)nn4)cc3)c2n1` [Compound I-342, 9-(4-(4-(2-hydroxyethyl)-1H-1,2,3-triazol-1-yl)benzyl)-2-(2-isopropylphenyl)-7,9-dihydro-8H-purin-8-one] is 5.70 to 6.70. The figure for `CC(C)c1ccc(F)cc1-c1ncc2c(n1)n(Cc1ccc(-n3cccn3)cc1)c(=O)n2C` [Compound I-9, 9-(4-(1H-pyrazol-1-yl)benzyl)-2-(5-fluoro-2-isopropylphenyl)-7-methyl-7,9-dihydro-8H-purin-8-one] is 5.70 to 6.70; for `CC(=O)N1CC(n2cc(C(F)(F)F)nc2-c2ccc(Cn3c(=O)[nH]c4cnc(-c5cccnc5C(C)C)nc43)cc2)C1` [Compound I-477, 9-(4-(1-(1-acetylazetidin-3-yl)-4-(trifluoromethyl)-1H-imidazol-2-yl)benzyl)-2-(2-isopropylpyridin-3-yl)-7,9-dihydro-8H-purin-8-one] it is over 7.30; for `CC(C)c1ncccc1-c1ncc2[nH]c(=O)n(Cc3ccc(-n4nc(C(F)(F)F)cc4N4CCOCC4)cc3)c2n1` [Compound I-77, 2-(2-isopropylpyridin-3-yl)-9-(4-(5-morpholino-3-(trifluoromethyl)-1H-pyrazol-1-yl)benzyl)-7,9-dihydro-8H-purin-8-one] it is over 7.30.

`Cn1cc(C(F)(F)F)nc1-c1ccc(Cn2c(=O)n(C)c3cnc(-c4cccnc4N4CCOCC4)nc32)cc1` [Compound I-133, 7-methyl-9-(4-(1-methyl-4-(trifluoromethyl)-1H-imidazol-2-yl)benzyl)-2-(2-morpholinopyridin-3-yl)-7,9-dihydro-8H-purin-8-one] showed a pIC50 of 5.70 to 6.70. Then `Cc1cc(C(F)(F)F)n(-c2ccc(Cn3c(=O)[nH]c4cnc(-c5ccccc5C(C)C)nc43)cc2)n1` [Compound I-195, 2-(2-isopropylphenyl)-9-(4-(3-methyl-5-(trifluoromethyl)-1H-pyrazol-1-yl)benzyl)-7,9-dihydro-8H-purin-8-one], with over 7.30; and `CC(C)c1ccccc1-c1ncc2[nH]c(=O)n(CCC3CCN(c4cccnc4)CC3)c2n1` [Compound I-161, 2-(2-isopropylphenyl)-9-(2-(1-(pyridin-3-yl)piperidin-4-yl)ethyl)-7,9-dihydro-8H-purin-8-one], with 5.70 to 6.70; and `CC(C)c1ccccc1-c1ncc2c(n1)n(Cc1ccc(-c3nnc4ccccn34)cc1)c(=O)n2C` [Compound I-286, 9-(4-([1,2,4]triazolo[4,3-a]pyridin-3-yl)benzyl)-2-(2-isopropylphenyl)-7-methyl-7,9-dihydro-8H-purin-8-one], with over 7.30. The figure for `CC(C)c1ccccc1-c1ncc2[nH]c(=O)n(Cc3ccc(C(=O)N(C)CC(=O)N(C)C)cc3)c2n1` [Compound I-380, N-(2-(dimethylamino)-2-oxoethyl)-4-((2-(2-isopropylphenyl)-8-oxo-7,8-dihydro-9H-purin-9-yl)methyl)-N-methylbenzamide] is 6.70 to 7.30; for `CC(C)c1ncccc1-c1ncc2c(n1)n(Cc1ccc(-c3nc(C(F)(F)F)cn3C3CC3)cc1)c(=O)n2C` [Compound I-114, 9-(4-(1-cyclopropyl-4-(trifluoromethyl)-1H-imidazol-2-yl)benzyl)-2-(2-isopropylpyridin-3-yl)-7-methyl-7,9-dihydro-8H-purin-8-one] it is over 7.30; for `CC(C)c1ccccc1-c1ncc2[nH]c(=O)n(Cc3ccc(-c4cc(N5CCOCC5)ncn4)cc3)c2n1` [Compound I-250, 2-(2-isopropylphenyl)-9-(4-(6-morpholinopyrimidin-4-yl)benzyl)-7,9-dihydro-8H-purin-8-one] it is 6.70 to 7.30. In the case of `CCCOc1ncccc1-c1ncc2[nH]c(=O)n(Cc3ccc(-c4nc(C(F)(F)F)cn4C)cc3)c2n1` [Compound I-413, 9-(4-(1-methyl-4-(trifluoromethyl)-1H-imidazol-2-yl)benzyl)-2-(2-propoxypyridin-3-yl)-7,9-dihydro-8H-purin-8-one], the pIC50 was over 7.30.

The record behind these values is patent US10189841B2, “Purinones as ubiquitin-specific protease 1 inhibitors” (Forma Therapeutics, Inc., priority 2015, dated 2019).
